One data set has as its target T1, LuxAB luciferase (Aliivibrio fischeri, UniProt P19907).
T1 construct: gene luxA; natively purified LuxAB luciferase, untagged; with Alkanal monooxygenase beta chain
T1 sequence (P19907 1-354): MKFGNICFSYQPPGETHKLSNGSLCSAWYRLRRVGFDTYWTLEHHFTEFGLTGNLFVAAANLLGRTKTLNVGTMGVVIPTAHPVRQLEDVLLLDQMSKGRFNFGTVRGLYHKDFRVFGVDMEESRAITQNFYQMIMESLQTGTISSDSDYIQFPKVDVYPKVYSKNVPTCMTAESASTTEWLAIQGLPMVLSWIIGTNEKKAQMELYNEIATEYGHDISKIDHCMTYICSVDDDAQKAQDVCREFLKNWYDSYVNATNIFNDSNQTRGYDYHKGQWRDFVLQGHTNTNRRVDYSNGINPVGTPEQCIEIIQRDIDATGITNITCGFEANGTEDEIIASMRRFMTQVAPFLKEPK
T1 sequence (P19908 1-326 partner): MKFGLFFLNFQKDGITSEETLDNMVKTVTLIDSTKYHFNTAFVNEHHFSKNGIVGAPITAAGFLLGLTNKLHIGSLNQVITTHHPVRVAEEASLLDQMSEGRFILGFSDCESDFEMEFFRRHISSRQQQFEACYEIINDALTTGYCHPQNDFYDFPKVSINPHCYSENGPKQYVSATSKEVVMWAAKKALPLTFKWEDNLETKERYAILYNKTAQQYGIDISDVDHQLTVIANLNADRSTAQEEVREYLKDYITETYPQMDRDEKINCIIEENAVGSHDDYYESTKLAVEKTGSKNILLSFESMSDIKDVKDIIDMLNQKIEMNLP
The experiment in a line: […] min biotransformation with FMNH2 supplied by purified flavin reductases, GC. In kind it is biochemical. As to conditions: FMNH2 cosubstrate generated in situ from FMN and NADH, 1 mM ketone, pH 7.6, 25 °C.

In a further data set the target is T2, 3,6-DKCMO (Pseudomonas putida, UniProt D7UER1).
T2 construct: gene camE36; natively purified biooxygenating subunit, untagged
T2 sequence (D7UER1 1-378): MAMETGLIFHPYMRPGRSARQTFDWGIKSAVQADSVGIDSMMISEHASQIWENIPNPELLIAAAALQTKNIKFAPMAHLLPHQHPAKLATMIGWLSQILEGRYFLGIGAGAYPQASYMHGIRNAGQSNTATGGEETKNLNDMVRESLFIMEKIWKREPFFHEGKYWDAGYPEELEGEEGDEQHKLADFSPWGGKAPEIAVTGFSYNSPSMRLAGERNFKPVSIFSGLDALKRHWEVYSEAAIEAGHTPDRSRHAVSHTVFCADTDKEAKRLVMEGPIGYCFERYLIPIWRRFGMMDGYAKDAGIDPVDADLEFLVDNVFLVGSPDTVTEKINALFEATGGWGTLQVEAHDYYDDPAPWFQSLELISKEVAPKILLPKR
The data set is described as above. In kind it is biochemical. As to conditions: FMNH2 cosubstrate generated in situ from FMN and NADH, 1 mM ketone, pH 7.6, 25 °C.

Another data set has as its system Frp2. Description: initial rate of FMN reduction by NADH at […] nm, single-enzyme, Michaelis-Menten. In kind it is biochemical, Pseudomonas putida. As to conditions: co-substrate NADH, anaerobic; single-enzyme assay (S); read-out: Apparent KmFMN.
The subject of another data set is Frp1. The description is as above. As to conditions: co-substrate NADH, anaerobic; single-enzyme assay (S); read-out: Apparent KmFMN. In kind it is biochemical, Pseudomonas putida.
Substrate in the data set “purified protein”: Cc1cc2nc3c(=O)[nH]c(=O)nc-3n(C[C@H](O)[C@H](O)[C@H](O)COP(=O)(O)O)c2cc1C
Description: purified protein. Particulars: co-substrate NADH, anaerobic; single-enzyme assay (S). In kind it is biochemical, Aliivibrio fischeri.

Consider `Cc1cc2c(cc1C)N(C[C@H](O)[C@H](O)[C@H](O)COP(=O)(O)O)c1[nH]c(=O)[nH]c(=O)c1N2` [FMNH2], for which the “120 min biotransformation with FMNH2 supplied by purified flavin reductases, GC” value at LuxAB luciferase and at 3,6-DKCMO was “can biooxygenate the bicyclic ketone by sourcing the requisite FMNH2 cosubstrate” in each case.

Turning to `Cc1cc2nc3c(=O)[nH]c(=O)nc-3n(C[C@H](O)[C@H](O)[C@H](O)COP(=O)(O)O)c2cc1C` [FMN], the Km in the data set with Frp2 was 4.2 µM; with Frp1, 2.5 µM.

B1: FreVf (Aliivibrio fischeri) (protein)
chain: MPINCKVKSIEPLACNTFRILLHPEQPVAFKAGQYLTVVMGEKDKRPFSIASSPCRHEGEIELHIGAAEHNAYAGEVVESMKSALETGGDILIDAPHGEAWIREDSDRSMLLIAGGTGFSYVRSILDHCISQQIQKPIYLYWGGRDECQLYAKAELESIAQAHSHITFVPVVEKSEGWTGKTGNVLEAVKADFNSLADMDIYIAGRFEMAGAAREQFTTEKQAKKEQLFGDAFAFI
B1: the Km in the data set “purified protein” came to 2.5 µM.

B2: FRGVf (Aliivibrio fischeri) (protein)
chain: THPIIHDLENRYTSKKYDPSKKVSQEDLAVLLEALRLSASSINSQPWKFIVIESDAAKQRMHDSFANMHQFNQPHIKACSHVILFANKLSYTRDDYDVVLSKAVADKRITEEQKEAAFASFKFVELNCDENGEHKAWTKPQAYLALGNALHTLARLNIDSTTMEGIDPELLSEIFADELKGYECHVALAIGYHHPSEDYNASLPKSRKAFEDVITIL
Regarding B2, the Km in the data set “purified protein” was 4.3 µM.

These data come from PMC9864536, “Inter-Species Redox Coupling by Flavin Reductases and FMN-Dependent Two-Component Monooxygenases Undertaking Nucleophilic Baeyer–Villiger Biooxygenations” (Microorganisms, 2022).
